How the values were obtained:
[1] = target: TYK2 (Homo sapiens, UniProt P29597); experiment: JAK kinase activity inhibition, TR-FRET (TYK2); type: biochemical; conditions: TR-FRET kinase assay
Protocol: (§1) Experimental objective: The objective of this test is to test the inhibitory effect of the compound on JAK kinase activity.
(§2) Experimental method: the fluorescence resonance energy transfer (TR-FRET) method was used to test the inhibitory effect of the compound on JAK kinase activity, and the half inhibitory concentration IC50 of the compound on JAK kinase activity was obtained.
(§3) Kinase reaction was carried out in a white 384-well plate (PerkinElmer). 1-5 μL of different concentrations of the compound diluted with DMSO and ddH2O was added into each well, and 1-5 μL of the corresponding solvent was added to the positive control wells, followed by addition of 0.1-20 nM JAK kinase solution diluted with 1-5 μL of kinase buffer (HEPES 50-250 mM, MgCl2 5-20 mM, etc.) was added to each well. 1-5 μL of kinase buffer was added to the negative control well. 1-5 μL of substrate mixture containing peptide substrate and ATP was added. The plate was incubated at room temperature for 0.5-5 hours. […], EDTA and detection solution containing labeled antibody was added, and then the plate was incubated at room temperature for another 1-24 hours. The fluorescence signal value at about 620 nm and 665 nm of each well was measured by BioTek Synergy H1 plate reader, and the inhibition rate was calculated by the fluorescence signal value. According to the inhibition rate of different concentrations, the IC50 of the compound was obtained by curve fitting.
(§4) The percentage inhibition data of the wells treated with the compound was calculated with the positive control wells (DMSO control wells) and negative control wells (no kinase added) on the plate {% inhibition rate=100-[(test compound value-negative control value)]/(Positive control value-negative control value)×100}. IC50 value was calculated by using GraphPad prism to fit the data of different concentrations and corresponding percentage inhibition rates to a 4-parameter non-linear logic formula.

[2] = target: JAK1 (Homo sapiens, UniProt P23458); experiment: JAK kinase activity inhibition, TR-FRET (JAK1); type: biochemical; conditions: TR-FRET kinase assay
Protocol: as §1, §2, §3, §4

JAK1, sequence (P23458 whole entry): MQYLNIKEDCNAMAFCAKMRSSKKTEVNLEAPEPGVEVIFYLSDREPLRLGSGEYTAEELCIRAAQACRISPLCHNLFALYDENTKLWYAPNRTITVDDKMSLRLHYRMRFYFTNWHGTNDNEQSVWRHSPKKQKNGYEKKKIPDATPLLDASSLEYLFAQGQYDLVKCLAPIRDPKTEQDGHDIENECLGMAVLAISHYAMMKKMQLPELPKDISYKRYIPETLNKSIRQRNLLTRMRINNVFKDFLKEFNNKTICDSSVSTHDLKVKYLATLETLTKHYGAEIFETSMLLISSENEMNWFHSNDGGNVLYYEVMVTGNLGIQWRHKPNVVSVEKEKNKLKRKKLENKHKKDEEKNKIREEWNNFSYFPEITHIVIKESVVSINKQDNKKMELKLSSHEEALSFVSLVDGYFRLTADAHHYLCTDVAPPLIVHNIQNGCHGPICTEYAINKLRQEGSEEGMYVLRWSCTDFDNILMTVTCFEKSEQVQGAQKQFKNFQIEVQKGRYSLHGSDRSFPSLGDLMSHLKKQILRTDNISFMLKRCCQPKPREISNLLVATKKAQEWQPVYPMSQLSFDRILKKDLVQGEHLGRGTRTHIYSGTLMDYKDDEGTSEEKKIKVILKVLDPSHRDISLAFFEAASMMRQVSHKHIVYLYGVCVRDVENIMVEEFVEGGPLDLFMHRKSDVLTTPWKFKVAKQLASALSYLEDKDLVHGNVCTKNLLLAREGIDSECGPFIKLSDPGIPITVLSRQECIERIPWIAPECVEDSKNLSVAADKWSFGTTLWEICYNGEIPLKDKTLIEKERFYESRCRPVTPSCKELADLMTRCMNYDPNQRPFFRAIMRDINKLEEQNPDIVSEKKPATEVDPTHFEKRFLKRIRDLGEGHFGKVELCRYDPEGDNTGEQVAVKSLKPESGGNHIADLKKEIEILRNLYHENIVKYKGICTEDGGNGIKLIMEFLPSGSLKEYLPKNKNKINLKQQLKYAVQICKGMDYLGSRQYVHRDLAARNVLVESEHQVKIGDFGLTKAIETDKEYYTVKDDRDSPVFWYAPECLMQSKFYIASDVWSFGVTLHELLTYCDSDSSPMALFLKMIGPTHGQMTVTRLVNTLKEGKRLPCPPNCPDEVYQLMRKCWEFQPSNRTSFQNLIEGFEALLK
TYK2, sequence (P29597 whole entry): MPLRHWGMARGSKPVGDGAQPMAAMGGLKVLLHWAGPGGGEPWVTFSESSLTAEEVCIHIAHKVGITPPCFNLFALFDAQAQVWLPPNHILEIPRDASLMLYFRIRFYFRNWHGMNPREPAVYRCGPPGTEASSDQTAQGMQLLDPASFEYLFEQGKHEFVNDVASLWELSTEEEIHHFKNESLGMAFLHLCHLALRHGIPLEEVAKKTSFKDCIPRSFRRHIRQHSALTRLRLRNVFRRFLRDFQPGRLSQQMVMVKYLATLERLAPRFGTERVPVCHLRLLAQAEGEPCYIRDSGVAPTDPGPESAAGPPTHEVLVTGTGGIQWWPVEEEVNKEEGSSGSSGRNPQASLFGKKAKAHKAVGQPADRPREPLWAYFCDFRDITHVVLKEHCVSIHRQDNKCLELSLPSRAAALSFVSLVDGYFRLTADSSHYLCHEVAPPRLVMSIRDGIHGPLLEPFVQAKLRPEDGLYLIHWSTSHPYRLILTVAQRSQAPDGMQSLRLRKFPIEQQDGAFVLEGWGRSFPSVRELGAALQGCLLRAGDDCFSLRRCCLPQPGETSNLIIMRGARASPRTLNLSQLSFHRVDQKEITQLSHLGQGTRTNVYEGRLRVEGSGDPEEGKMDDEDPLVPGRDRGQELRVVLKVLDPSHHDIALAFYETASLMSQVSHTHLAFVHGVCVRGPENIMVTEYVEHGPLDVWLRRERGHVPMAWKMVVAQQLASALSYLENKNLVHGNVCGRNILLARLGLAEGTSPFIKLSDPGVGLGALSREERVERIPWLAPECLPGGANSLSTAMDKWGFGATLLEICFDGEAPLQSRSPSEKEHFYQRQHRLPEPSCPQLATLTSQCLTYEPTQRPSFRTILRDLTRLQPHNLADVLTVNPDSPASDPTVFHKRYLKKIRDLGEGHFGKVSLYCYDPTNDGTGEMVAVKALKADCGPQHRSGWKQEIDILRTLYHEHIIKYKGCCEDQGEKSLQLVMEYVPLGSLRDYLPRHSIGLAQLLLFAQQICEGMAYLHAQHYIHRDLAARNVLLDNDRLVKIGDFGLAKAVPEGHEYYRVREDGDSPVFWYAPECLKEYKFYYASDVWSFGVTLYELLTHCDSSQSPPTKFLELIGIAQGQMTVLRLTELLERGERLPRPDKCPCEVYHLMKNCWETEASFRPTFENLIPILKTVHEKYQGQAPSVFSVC

With `Cc1cc(Nc2nc(N[C@@H]3C[C@H]4CC[C@@H](C3)N4CCC#N)c3cc[nH]c3n2)n[nH]1` [Embodiment 39, 3-((3-exo)-3-((2-((5-methyl-1H-pyrazol-3-yl)amino)-7H-pyrrolo[2,3-d]pyrimidin-4-yl)amino)-8-azabicyclo[3.2.1]oct-8-yl)propionitrile] the IC50 [1] was 9.49 nM and the IC50 [2] was 2.94 nM.
With `Cc1cc(Nc2nc(N[C@@H]3C[C@H]4CC[C@@H](C3)N4S(=O)(=O)N3CC(C#N)C3)nc3cc(C)sc23)n[nH]1` [Embodiment 286, 1-(((3-exo)-3-((6-methyl-4-((5-methyl-1H-pyrazol-3-yl)amino)thieno[3,2-d]pyrimidin-2-yl)amino)-8-azabicyclo[3.2.1]oct-8-yl)sulfonyl)azetindin-3-formonitrile] the IC50 [1] was 14 nM and the IC50 [2] was 0.06 nM.
`Cc1cc(Nc2nc(N[C@@H]3C[C@H]4CC[C@@H](C3)N4CCC#N)nc3ccc(Cl)cc23)n[nH]1` [Embodiment 178, 3-((3-exo)-3-((6-chloro-4-((5-methyl-1H-pyrazol-3-yl)amino)quinazolin-2-yl)amino)-8-azabicyclo[3.2.1]oct-8-yl)propionitrile] was tested, and the IC50 [1] was greater than 100 nM and the IC50 [2] was 10.6 nM.
`N#CCCN1[C@@H]2CC[C@H]1C[C@H](Nc1nc(Nc3ncc(CCO)s3)cc3ncccc13)C2` [Embodiment 161, 3-((3-exo)-3-((7-((5-(2-hydroxylethyl)thiazol-2-yl)amino)-1,6-diazanaphthalen-5-yl)amino)-8-azabicyclo[3.2.1]oct-8-yl)propionitrile] showed an IC50 [1] of 35 nM and an IC50 [2] of 20.8 nM.
Work on `CC(C)(O)c1cnc(Nc2cc3ncccc3c(N[C@@H]3C[C@H]4CC[C@@H](C3)N4CCC#N)n2)s1` [Embodiment 31, 3-((3-exo)-3-((7-((5-(e2-hydroxypropan-2-yl)thiazol-2-yl)amino)-1,6-diazanaphthalen-5-yl)amino)-8-azabicyclo[3.2.1]oct-8-yl)propionitrile] yielded an IC50 [1] greater than 100 nM and an IC50 [2] of 48.6 nM.
`Cc1cc(Nc2nc(N[C@@H]3C[C@H]4CC[C@@H](C3)N4S(=O)(=O)N3CC(C#N)C3)nc3cc(C4CC4)ccc23)n[nH]1` [Embodiment 216, 1-(((3-exo)-3-((7-cyclopropyl-4-((5-methyl-1H-pyrazol-3-yl)amino)quinazolin-2-yl)amino)-8-azabicyclo[3.2.1]oct-8-yl)sulfonyl)azetindin-3-formonitrile] showed an IC50 [1] of 0.48 nM and an IC50 [2] of 0.04 nM.
Work on `COCCS(=O)(=O)N1[C@@H]2CC[C@H]1C[C@H](Nc1nc(Nc3cc(C)[nH]n3)c3ccccc3n1)C2` [Embodiment 233, N2-((3-exo)-8-((2-methoxylethyl)sulfonyl)-8-azabicyclo[3.2.1]oct-3-yl)-N4-(5-methyl-1H-pyrazol-3-yl)quinazolin-2,4-diamine] yielded an IC50 [1] of 2.09 nM and an IC50 [2] of 3.55 nM.
Compound `Cc1cc(Nc2cc3nccn3c(N[C@@H]3C[C@H]4CC[C@@H](C3)N4CCC#N)n2)n[nH]1` [Embodiment 79, 3-((3-exo)-3-((7-((5-methyl-1H-pyrazol-3-yl)amino)imidazo[1,2-c]pyrimidin-5-yl)amino)-8-azabicyclo[3.2.1]oct-8-yl)propionitrile] has an IC50 [1] of 5.77 nM and an IC50 [2] of 2.95 nM.
With `Cc1cc(Nc2nc(N[C@@H]3C[C@H]4CC[C@@H](C3)N4C(=O)CN(C)C)nc3cc(Cl)ccc23)n[nH]1` [Embodiment 224] the IC50 [1] was greater than 100 nM and the IC50 [2] was 1.76 nM.
With `Cc1cc(Nc2nc(N[C@@H]3C[C@H]4CC[C@@H](C3)N4CCC#N)nc3[nH]ncc23)n[nH]1` [Embodiment 51, 3-((3-exo)-3-((4-((5-methyl-1H-pyrazol-3-yl)amino)-1H-pyrazolo[3,4-d]pyrimidin-6-yl)amino)-8-azabicyclo[3.2.1]oct-8-yl)propionitrile] the IC50 [1] was 0.24 nM and the IC50 [2] was 0.24 nM.
For `N#CCCN1[C@@H]2CC[C@H]1C[C@H](Nc1nc(Nc3ncc(C#N)s3)cc3ncccc13)C2` [Embodiment 160, 2-((5-(((3-exo)-8-(2-cyanoethyl)-8-azabicyclo[3.2.1]oct-3-yl)amino)-1,6-diazanaphthalen-7-yl)amino)thiazol-5-formonitrile], the IC50 [1] was 6.15 nM and the IC50 [2] was 11.7 nM.
In the case of `CN(c1nc(Nc2cc(CO)[nH]n2)c2ccc(Cl)cc2n1)[C@@H]1C[C@H]2CC[C@@H](C1)N2CCC#N` [Embodiment 236, 3-((3-exo)-3-((7-chloro-4-((5-(hydroxymethyl)-1H-pyrazol-3-yl)amino)quinazolin-2-yl)(methyl)amino)-8-azabicyclo[3.2.1]oct-8-yl)propionitrile], the IC50 [1] is reported as 4.77 nM and the IC50 [2] is reported as 8.81 nM.
`Cc1cc(Nc2nc(N[C@@H]3C[C@H]4CC[C@@H](C3)N4C(=O)[C@@H]3CCCN3)nc3sccc23)n[nH]1` [Embodiment 249, ((3-exo)-3-((4-((5-methyl-1H-pyrazol-3-yl)amino)thieno[2,3-d]pyrimidin-2-yl)amino)-9-azabicyclo[3.3.1]non-9-yl) ((S)-pyrrolidin-2-yl)methanone] was tested, and the IC50 [1] was 0.28 nM and the IC50 [2] was 1.88 nM.
Compound `Cc1cc(Nc2nc(N[C@@H]3C[C@H]4CC[C@@H](C3)N4C(=O)c3cccnc3)nc3ccccc23)n[nH]1` [Embodiment 227, ((3-exo)-3-((4-((5-methyl-1H-pyrazol-3-yl)amino)quinazolin-2-yl)amino)-8-azabicyclo[3.2.1]oct-8-yl)(pyridin-3-yl)methanone] has an IC50 [1] of 4.77 nM and an IC50 [2] of 5.17 nM.
In the case of `Cc1cc(Nc2nc(N[C@@H]3C[C@H]4CC[C@@H](C3)N4CCC#N)nc3ncccc23)n[nH]1` [Embodiment 89, 3-((3-exo)-3-((4-((5-methyl-1H-pyrazol-3-yl)amino)pyrido[2,3-d]pyrimidin-2-yl)amino)-8-azabicyclo[3.2.1]oct-8-yl)propionitrile], the IC50 [1] is reported as 0.15 nM and the IC50 [2] is reported as 0.65 nM.
`Cc1cc(Nc2nc(N[C@@H]3C[C@H]4CC[C@@H](C3)N4CCC#N)nc3cc(-c4ccncc4)ccc23)n[nH]1` [Embodiment 180, 3-((3-exo)-3-((4-((5-methyl-1H-pyrazol-3-yl)amino)-7-(pyridin-4-yl)quinazolin-2-yl)amino)-8-azabicyclo[3.2.1]oct-8-yl)propionitrile] showed an IC50 [1] of 0.56 nM and an IC50 [2] of 0.35 nM.
`Cc1cc(Nc2nc(N[C@@H]3C[C@H]4CC[C@@H](C3)N4CCC#N)nc3c(Cl)cccc23)n[nH]1` [Embodiment 177, 3-((3-exo)-3-((8-chloro-4-((5-methyl-1H-pyrazol-3-yl)amino)quinazolin-2-yl)amino)-8-azabicyclo[3.2.1]oct-8-yl)propionitrile] was tested, and the IC50 [1] was 1.58 nM and the IC50 [2] was 3.36 nM.
`O=C(CN1CCCCC1)N1[C@@H]2CC[C@H]1C[C@H](Nc1nc(Nc3ncc(CO)s3)cc3ncccc13)C2` [Embodiment 165, 1-((3-exo)-3-((7-((5-(hydroxymethyl)thiazol-2-yl)amino)-1,6-diazanaphthalen-5-yl)amino)-8-azabicyclo[3.2.1]oct-8-yl)-2-(piperidin-1-yl)ethane-1-one] gave an IC50 [1] greater than 100 nM and an IC50 [2] of 4.92 nM.
Work on `N#CCCN1[C@@H]2CC[C@H]1C[C@H](Nc1nc(Nc3cc(F)[nH]n3)cc3ncccc13)C2` [Embodiment 9, 3-((3-exo)-3-((7-((5-fluoro-1H-pyrazol-3-yl)amino)-1,6-diazanaphthalen-5-yl)amino)-8-azabicyclo[3.2.1]oct-8-yl)propionitrile] yielded an IC50 [1] greater than 100 nM and an IC50 [2] of 30.6 nM.
With `Cc1cc(Nc2cc3ncccc3c(N[C@@H]3C[C@H]4CC[C@@H](C3)N4S(=O)(=O)c3cn[nH]c3)n2)n[nH]1` [Embodiment 315, N5-((3-exo)-8-((1H-pyrazol-4-yl)sulfonyl)-8-azabicyclo[3.2.1]oct-3-yl)-N7-(5-methyl-1H-pyrazol-3-yl)-1,6-diazanaphthalen-5,7-diamine] the IC50 [1] was greater than 100 nM and the IC50 [2] was 13.1 nM.
`N#CCCN1[C@@H]2CC[C@H]1C[C@H](Nc1nc(Nc3cc(C4CC4)[nH]n3)cc3ncccc13)C2` [Embodiment 12, 3-((3-exo)-3-((7-((5-cyclopropyl-1H-pyrazol-3-yl)amino)-1,6-diazanaphthalen-5-yl)amino)-8-azabicyclo[3.2.1]oct-8-yl)propionitrile] was tested, and the IC50 [1] was 10.1 nM and the IC50 [2] was 2.71 nM.

From patent publication US20230043863A1, “HETEROAROMATIC DERIVATIVES FOR USE AS REGULATOR, PREPARATION METHOD THEREFOR AND USE THEREOF” (JIANGSU HANSOH PHARMACEUTICAL GROUP CO., LTD., priority 2018, published 2023)
